The record followed here is patent US10435399B2, “HDAC6 inhibitory heterocyclic compound” (TAKEDA PHARMACEUTICAL COMPANY LIMITED, priority 2017, dated 2019).

The target of one assay is T1, HDAC6 enzyme (Homo sapiens, UniProt Q9UBN7).
T1 construct: transducing full length HDAC6 gene into Sf-9 insect cells; GST; purchased SignalChem; host or cells: Sf-9 insect cells
T1 sequence (Q9UBN7 1-1215): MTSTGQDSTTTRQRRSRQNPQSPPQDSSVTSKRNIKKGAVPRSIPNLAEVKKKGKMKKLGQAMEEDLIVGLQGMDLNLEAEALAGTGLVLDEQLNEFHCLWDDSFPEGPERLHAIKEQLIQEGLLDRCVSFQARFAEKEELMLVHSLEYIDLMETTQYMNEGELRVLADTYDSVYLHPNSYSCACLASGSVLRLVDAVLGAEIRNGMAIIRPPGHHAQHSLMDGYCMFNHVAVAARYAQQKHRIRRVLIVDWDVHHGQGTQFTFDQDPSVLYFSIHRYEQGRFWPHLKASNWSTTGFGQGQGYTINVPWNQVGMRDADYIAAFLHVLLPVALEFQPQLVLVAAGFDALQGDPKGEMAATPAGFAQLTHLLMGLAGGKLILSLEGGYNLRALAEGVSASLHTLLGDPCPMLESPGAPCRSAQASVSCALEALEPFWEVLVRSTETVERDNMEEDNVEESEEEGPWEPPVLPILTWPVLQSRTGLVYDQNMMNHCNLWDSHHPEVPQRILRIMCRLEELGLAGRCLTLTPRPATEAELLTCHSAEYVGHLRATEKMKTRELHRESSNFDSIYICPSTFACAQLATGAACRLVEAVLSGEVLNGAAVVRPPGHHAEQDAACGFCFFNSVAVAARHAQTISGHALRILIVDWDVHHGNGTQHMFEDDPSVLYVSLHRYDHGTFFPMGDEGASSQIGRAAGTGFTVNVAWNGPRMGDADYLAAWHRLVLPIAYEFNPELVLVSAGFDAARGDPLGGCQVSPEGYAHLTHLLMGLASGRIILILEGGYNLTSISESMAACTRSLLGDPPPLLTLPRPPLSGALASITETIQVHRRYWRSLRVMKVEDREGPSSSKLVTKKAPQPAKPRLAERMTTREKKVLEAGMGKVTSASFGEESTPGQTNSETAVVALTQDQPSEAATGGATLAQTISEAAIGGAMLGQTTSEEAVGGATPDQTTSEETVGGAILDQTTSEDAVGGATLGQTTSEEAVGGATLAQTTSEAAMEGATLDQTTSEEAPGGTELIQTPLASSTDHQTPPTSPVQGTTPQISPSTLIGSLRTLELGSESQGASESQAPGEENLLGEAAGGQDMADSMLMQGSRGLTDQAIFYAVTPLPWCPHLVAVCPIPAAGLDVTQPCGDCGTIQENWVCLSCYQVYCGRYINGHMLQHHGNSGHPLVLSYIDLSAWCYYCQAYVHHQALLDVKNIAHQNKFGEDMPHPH
Kind of assay: HDAC6 enzyme inhibitory activity (HDAC-Glo I/II Assay kit). The format is biochemical. Conditions: 10 μM; wells without enzyme = 100% inhibition. Here is the method:
HDAC6 enzyme prepared by transducing full length HDAC6 gene into Sf-9 insect cells and purifying by GST affinity column were purchased from SignalChem. Using this enzyme, HDAC6 enzyme inhibitory activities of the compound of the present invention were evaluated. Enzymes were used after preserved at −70° C. HDAC6 enzyme inhibitory activity of the compound of the present invention was measured using HDAC-Glo™ I/II Assay kit (Promega) according to the following experimental method. The test compound diluted with assay buffer (24 mM Tris-HCl (pH 7.5), 1 mM MgCl2, 0.35 mM KCl, 135 mM NaCl, 0.6 mM Glutathione, 0.01% Tween-20) was added to a 384-well plate by each 2 μL. Then, HDAC6 enzyme solution diluted with assay buffer was added thereto by each 4 μL, and the plate was incubated at room temperature for 60 min. After incubated, HDAC substrate-Developer solution prepared according to Promega protocol attached to the assay kit was added to the 384-well plate by each 2 μL, and the enzyme reaction was started. After reacting at room temperature for 20 min, luminescence level was measured using plate reader Envision (PerkinElmer). The inhibitory activity of each compound of Example was calculated as a relative activity value when luminescence level in wells without enzyme is considered as 100% inhibition.
As to `O=C1c2cc(-c3nnc(C(F)F)o3)ccc2CN1[C@@H]1CCC(F)(F)C[C@@H]1c1ccccn1` (relative stereo) [Example 591, 6-(5-(difluoromethyl)-1,3,4-oxadiazol-2-yl)-2-((1R*,2S*)-4,4-difluoro-2-(pyridin-2-yl)cyclohexyl)isoindolin-1-one (optical isomer)], the “HDAC6 inhibitory rate (%) (10 μM)” value was found to be 99%.

Still in this assay, the particulars now being: 10 μM; wells without enzyme = 100% inhibition; read-out: HDAC6 inhibitory rate (%) (10 μM).
Turning to `O=C(NC1CC(F)(F)CC[C@H]1N1Cc2ccc(-c3nnc(C(F)F)o3)cc2C1=O)OCc1ccccc1` (stereo in doubt) [Example 517, benzyl ((1S,2R)-2-(6-(5-(difluoromethyl)-1,3,4-oxadiazol-2-yl)-1-oxo-1,3-dihydro-2H-isoindol-2-yl)-5,5-difluorocyclohexyl) carbamate], the inhibition at 10 µM was found to be 100%. With `O=C1CCCN1[C@@H]1COCC[C@H]1N1Cc2ccc(-c3nnc(C(F)F)o3)cc2C1=O` [Example 1, 6-(5-(difluoromethyl)-1,3,4-oxadiazol-2-yl)-2-((3S,4R)-3-(2-oxopyrrolidin-1-yl)tetrahydro-2H-pyran-4-yl)isoindolin-1-one], the inhibition at 10 µM was 101%. Regarding `O=C1CCCN1[C@@H]1CCCC[C@H]1N1Cc2ccc(-c3nnc(C(F)F)o3)cc2C1=O` [Example 2, 6-(5-(difluoromethyl)-1,3,4-oxadiazol-2-yl)-2-((1R,2R)-2-(2-oxopyrrolidin-1-yl)cyclohexyl)isoindolin-1-one], the inhibition at 10 µM came to 99%. On to `CC(C)(C)OC(=O)N[C@@H]1CCCC[C@H]1N1Cc2ccc(-c3nnc(C(F)F)o3)cc2C1=O` [Example 3, tert-butyl ((1R,2R)-2-(6-(5-(difluoromethyl)-1,3,4-oxadiazol-2-yl)-1-oxo-1,3-dihydro-2H-isoindol-2-yl)cyclohexyl)carbamate], for which the inhibition at 10 µM was 99%. On the same count and under the same terms, then `O=C1c2cc(-c3nnc(C(F)F)o3)ccc2CN1[C@@H]1CCCC[C@H]1N1CCCS1(=O)=O` [Example 4, 6-(5-(difluoromethyl)-1,3,4-oxadiazol-2-yl)-2-((1R,2R)-2-(1,1-dioxido-1,2-thiazolidin-2-yl)cyclohexyl)isoindolin-1-one], with 99%; and `CC(=O)N[C@@H]1CCCC[C@H]1N1Cc2ccc(-c3nnc(C(F)F)o3)cc2C1=O` [Example 5, N-((1R,2R)-2-(6-(5-(difluoromethyl)-1,3,4-oxadiazol-2-yl)-1-oxo-1,3-dihydro-2H-isoindol-2-yl)cyclohexyl)acetamide], with 100%; and `O=C1c2cc(-c3nnc(C(F)F)o3)ccc2CN1[C@@H]1CCCC[C@H]1NC(=O)C(F)(F)F` [Example 6, N-((1R,2R)-2-(6-(5-(difluoromethyl)-1,3,4-oxadiazol-2-yl)-1-oxo-1,3-dihydro-2H-isoindol-2-yl)cyclohexyl)-2,2,2-trifluoroacetamide], with 102%. As for `CCC(=O)N[C@@H]1CCCC[C@H]1N1Cc2ccc(-c3nnc(C(F)F)o3)cc2C1=O` [Example 7, N-((1R,2R)-2-(6-(5-(difluoromethyl)-1,3,4-oxadiazol-2-yl)-1-oxo-1,3-dihydro-2H-isoindol-2-yl)cyclohexyl)propanamide], the inhibition at 10 µM turned out to be 99%. Take `O=C(N[C@@H]1CCCC[C@H]1N1Cc2ccc(-c3nnc(C(F)F)o3)cc2C1=O)OC1CC1` [Example 8, cyclopropyl ((1R,2R)-2-(6-(5-(difluoromethyl)-1,3,4-oxadiazol-2-yl)-1-oxo-1,3-dihydro-2H-isoindol-2-yl)cyclohexyl)carbamate]: the inhibition at 10 µM stood at 101%. On the same count and under the same terms, with `CC(C)C(=O)N[C@@H]1CCCC[C@H]1N1Cc2ccc(-c3nnc(C(F)F)o3)cc2C1=O` [Example 9, N-((1R,2R)-2-(6-(5-(difluoromethyl)-1,3,4-oxadiazol-2-yl)-1-oxo-1,3-dihydro-2H-isoindol-2-yl)cyclohexyl)-2-methylpropanamide] the figure was 102%. On to `COC(=O)N[C@@H]1CCCC[C@H]1N1Cc2ccc(-c3nnc(C(F)F)o3)cc2C1=O` [Example 10, methyl((1R,2R)-2-(6-(5-(difluoromethyl)-1,3,4-oxadiazol-2-yl)-1-oxo-1,3-dihydro-2H-isoindol-2-yl)cyclohexyl)carbamate], for which the inhibition at 10 µM worked out at 99%. On to `O=C(N[C@@H]1CCCC[C@H]1N1Cc2ccc(-c3nnc(C(F)F)o3)cc2C1=O)C1CC1` [Example 11, N-((1R,2R)-2-(6-(5-(difluoromethyl)-1,3,4-oxadiazol-2-yl)-1-oxo-1,3-dihydro-2H-isoindol-2-yl)cyclohexyl)cyclopropanecarboxamide], for which the inhibition at 10 µM was 98%. As to `O=C(N[C@@H]1CCCC[C@H]1N1Cc2ccc(-c3nnc(C(F)F)o3)cc2C1=O)C1CCC1` [Example 12, N-((1R,2R)-2-(6-(5-(difluoromethyl)-1,3,4-oxadiazol-2-yl)-1-oxo-1,3-dihydro-2H-isoindol-2-yl)cyclohexyl)cyclobutanecarboxamide], the inhibition at 10 µM came out at 100%. For `O=C(CC(F)(F)F)N[C@@H]1CCCC[C@H]1N1Cc2ccc(-c3nnc(C(F)F)o3)cc2C1=O` [Example 13, N-((1R,2R)-2-(6-(5-(difluoromethyl)-1,3,4-oxadiazol-2-yl)-1-oxo-1,3-dihydro-2H-isoindol-2-yl)cyclohexyl)-3,3,3-trifluoropropanamide], the inhibition at 10 µM was 101%.

Turning to `O=C1c2ccccc2CN1[C@@H]1CCCC[C@H]1N1Cc2ccc(-c3nnc(C(F)F)o3)cc2C1=O` [Example 14, 6-(5-(difluoromethyl)-1,3,4-oxadiazol-2-yl)-2-((1R,2R)-2-(1-oxo-1,3-dihydro-2H-isoindol-2-yl)cyclohexyl)isoindolin-1-one], the inhibition at 10 µM worked out at 100%. For the compound `CC1(C(=O)N[C@@H]2CCCC[C@H]2N2Cc3ccc(-c4nnc(C(F)F)o4)cc3C2=O)CC1` [Example 15, N-((1R,2R)-2-(6-(5-(difluoromethyl)-1,3,4-oxadiazol-2-yl)-1-oxo-1,3-dihydro-2H-isoindol-2-yl)cyclohexyl)-1-methylcyclopropanecarboxamide], the inhibition at 10 µM amounted to 98%. As to `CC1(C(=O)N[C@@H]2CCCC[C@H]2N2Cc3ccc(-c4nnc(C(F)F)o4)cc3C2=O)COC1` [Example 16, N-((1R,2R)-2-(6-(5-(difluoromethyl)-1,3,4-oxadiazol-2-yl)-1-oxo-1,3-dihydro-2H-isoindol-2-yl)cyclohexyl)-3-methyloxetane-3-carboxamide], the inhibition at 10 µM is 100%.

Consider `N#CC1(C(=O)N[C@@H]2CCCC[C@H]2N2Cc3ccc(-c4nnc(C(F)F)o4)cc3C2=O)CC1` [Example 17, 1-cyano-N-((1R,2R)-2-(6-(5-(difluoromethyl)-1,3,4-oxadiazol-2-yl)-1-oxo-1,3-dihydro-2H-isoindol-2-yl)cyclohexyl)cyclopropanecarboxamide], for which the inhibition at 10 µM came to 101%.

Turning to `O=C(N[C@@H]1CCCC[C@H]1N1Cc2ccc(-c3nnc(C(F)F)o3)cc2C1=O)[C@@H]1CC1(F)F` [Example 18, (1S)—N-((1R,2R)-2-(6-(5-(difluoromethyl)-1,3,4-oxadiazol-2-yl)-1-oxo-1,3-dihydro-2H-isoindol-2-yl)cyclohexyl)-2,2-difluorocyclopropanecarboxamide], the inhibition at 10 µM is 100%. On to `O=C1c2cc(-c3nnc(C(F)F)o3)ccc2CN1[C@@H]1CCCC[C@H]1NC(=O)C1(F)CC1` [Example 19, N-((1R,2R)-2-(6-(5-(difluoromethyl)-1,3,4-oxadiazol-2-yl)-1-oxo-1,3-dihydro-2H-isoindol-2-yl)cyclohexyl)-1-fluorocyclopropanecarboxamide], for which the inhibition at 10 µM worked out at 101%.
